From patent US5885961A, “Methods of using epithelins to modulate cell proliferation” (Bristol-Myers Squibb Company, priority 1995, dated 1999)
“Also recorded” adds a separate entry of the source.

Legend:
Balb/MK cells [1] = assay: Murine keratinocyte growth assay (cell count); format: cell-based; conditions: for effect on growth of Balb/MK cells (rodent keratinocytes): FIG. 16A
Description: FIG. 16(A-B). (FIG. 16A) Effect of epithelin 1 and epidermal growth factor (EGF) on the growth of Balb/MK cells. Assays were performed as described in Section 6.2., infra. .circle-solid., epithelin 1; o, EGF (FIG. 16B) Effect of various concentrations of epithelin 2 on the epithelin 1 (20 ng/ml) induced growth of murine keratinocytes.
Balb/MK cells were plated at 1×10^4 cells per well in 1 ml of low calcium medium (Weissman and Aaronson, 1983, Cell 32:599-606; Carpenter and Zendegut, 1985, Anal. Biochem. 153:279-282) in 24-well Costar plates and incubated at 37° C. for 4-6 hours. Then media were removed and replaced with 1 ml of medium containing various concentrations of the test compound in triplicate. The control wells received only medium without any test material. The plates were incubated at 37° C. for 4 days, then medium was removed, wells were rinsed two times with 1 ml of phosphate-buffered saline, and the cells were detached with trypsin-EDTA and counted.

NRK-SA6 cells [2] = conditions: in the presence of TGFβ; Roberts et al., 1981; cited from earlier work
Balb/MK cells [3] = assay: Growth stimulatory activity (GSA), 125I-deoxyuridine incorporation into DNA of murine keratinocytes; format: cell-based
Description: FIG. 15(A-B). (FIG. 15A) Effect of epithelin 1 and epithelin 2 on the stimulation of ^125 I-deoxyuridine incorporation into DNA of the murine keratinocyte cell line Balb/MK. 2,000-4,000 cells were plated per well in 96 well plates in low-calcium medium containing 5% dialyzed FBS. Then GSA assays were performed as described in Section 6.2., infra. .circle-solid., epithelin 1; o, epithelin 2. (FIG. 15B) Effect of various concentrations of epithelin 2 on epithelin 1 (20 ng/ml) elicited incorporation of ^125 I-deoxyuridine into DNA of Balb/MK cells.
Balb/MK cells were also used as indicator cells in 96 well plates to assess the growth inhibitory activity (GIA) or growth stimulatory activity (GSA) of a test material using ^125 I-deoxyuridine incorporation into DNA as described in the previous section.

[4] = tested on: human fibroblasts and several other human tumor cells; assay: 125I-deoxyuridine incorporation into DNA, human fibroblasts and other human tumor cells; format: cell-based; conditions: maximum dose tested: 20 ng/ml epithelin 1, 270 ng/ml epithelin 2
[5] = tested on: A431 human epidermoid carcinoma cells; assay: Cell growth inhibitory activity (GIA), 125I-deoxyuridine incorporation into DNA; format: cell-based
Description: The cell growth inhibitory activity (GIA) assays were performed in flat-bottom 96 well plates (Falcon 3072). Human epidermoid carcinoma of vulva cells (A431) were used as test cells for GIA. 3.5×10^3 cells in 50 μl of test medium (DMEM supplemented with 5% heat inactivated fetal bovine serum (FBS), penicillin/streptomycin (PS) and glutamine) were placed in all wells except peripheral wells. The peripheral wells received 50 μl PBS. Three hours later, 50 μl of test sample in test medium was added to each well, while control wells received only 50 μl of test medium. Three wells were used for each concentration of test sample. Plates were incubated at 37° C. for 2-3 days. Then, 100 μl of a solution of […] (^125 I-IUdR, 4Ci/mg-0.5 mCi/ml, 2 μl/ml in test medium) was added to each well and plates were incubated at 37° C. After 4-6 hours, the medium was aspirated from the wells, which were then washed once with 200 μl PBS. Then, 200 μl methanol was added to each well, plates were incubated for 10 minutes at room temperature, and the methanol was removed by aspiration. 200 μl of 1M sodium hydroxide was added to each well, the plates were incubated for 30 minutes at 37° C. Sodium hydroxide was removed with titertek plugs (Flow Labs). The plugs were transferred into 12×75 mm plastic tubes and counted in a gamma counter to quantify ^125 I-IUdR incorporation.

NRK cells = assay: Mitogenic activity on NRK cells in monolayer; format: cell-based, rat
monkey kidney COS1 cells = assay: 125I-deoxyuridine incorporation into DNA, COS1; format: cell-based
[6] = Resistance of bioactivity to chemical, heat and enzyme treatment; format: physicochemical
Description: Epithelin 1 and epithelin 2 are resistant to treatment with 1M acetic acid, 1M ammonium hydroxide, 6M urea, 0.01M sodium metaperiodate, to heating at 56° C. for 30 minutes, and to treatment with various glycosidases or lipases. However, epithelin activity was sensitive to reduction, to reduction and 4-vinylpyridine treatment, and to digestion with proteinases such as trypsin, endoproteinase Lys-C, and endoproteinase Glu-C (V8).

EGF receptors = EGF receptors (Homo sapiens, UniProt P00533); assay: Binding of 125I-EGF to its receptors
[7] = tested on: human colon carcinoma cell line HCT 116; assay: 125I-deoxyuridine incorporation into DNA, HCT 116; format: cell-based; conditions: maximum dose tested: 20 ng/ml epithelin 1, 270 ng/ml epithelin 2
mink lung CCL 64 cells = assay: 125I-deoxyuridine incorporation into DNA, CCL 64; format: cell-based
NRK-SA6 cells [8] = assay: Soft agar colony assay in the presence of TGFβ; format: cell-based, rat
Description: FIG. 17. Effect of epithelin 1 and 2 on NRK-SA6 cell colony formation in soft agar in the presence of TFGβ (1 ng/ml). The colony formation assay used is described in Section 6.2.3, infra. Solid bars, epithelin 1; stippled bar, epidermal growth factor; open bar, epithelin 2; hatched bar, 20 ng/ml epithelin 1 plus 500 ng/ml epithelin 2.
A 0.38 ml base layer of 0.5% agar (Agar Noble; Difco Laboratories, Detroit, Mich.) in DMEM containing 10% heat inactivated FBS was added to 24 well Costar tissue culture plates. 0.38 ml of 0.3% agar containing the same medium-FBS mixture, 6-12×10^3 test cells, and the test proteins at various concentrations were overlaid on the basal layer of agar. The plates were incubated at 37° C. in a humidified atmosphere of 5% CO2 in air. Colonies were enumerated unfixed and unstained, and the number of colonies was scored between days 7 and 10. Colonies were defined as a cluster of at least eight cells.

| IC50 ([5]; A431 cells, read-out: concentration for 50% inhibition of 125I-deoxyuridine incorporation) | Substance | effect on growth of Balb/MK cells (rodent keratinocytes) (Balb/MK cells [1]) | anchorage-independent growth of rat kidney cells NRK-SA6 (NRK-SA6 cells [2]) | IC50 (Balb/MK cells [1]; epithelin 1 20 ng/ml, FIG. 16B, read-out: 50% inhibition of epithelin 1-induced growth of Balb/MK cells) | IC50 (Balb/MK cells [3]; Balb/MK cells, epithelin 1 20 ng/ml, FIG. 15B, read-out: 50% inhibition of epithelin 1 elicited 125I-deoxyuridine incorporation) | effect on 125I-deoxyuridine incorporation into DNA of Balb/MK cells (Balb/MK cells [3]; FIG. 15A) | effect on human fibroblasts and several other human tumor cells [4] | 50% inhibition of DNA synthesis (125I-deoxyuridine incorporation) ([5]; A431 cells, purified protein, FIG. 14) | Specific Activity ([5]; final purification step Anal TSK-250 (Table III)) | specific activity of purified protein (GIA) ([5]; one unit = amount inhibiting 125I-deoxyuridine incorporation into A431 cells by 50%) | mitogenic activity on NRK cells in monolayer (NRK cells) | effect on 125I-deoxyuridine incorporation into DNA (monkey kidney COS1 cells) | resistance to 1M acetic acid, 1M ammonium hydroxide, 6M urea, 0.01M sodium metaperiodate, heating at 56° C. for 30 minutes, glycosidases or lipases [6] | sensitivity of activity to reduction, reduction and 4-vinylpyridine treatment, and proteinases (trypsin, Lys-C, Glu-C) [6] | effect on binding of 125I-EGF to its receptors (EGF receptors) | effect on growth of HCT 116 cells [7] | effect on 125I-deoxyuridine incorporation into DNA (mink lung CCL 64 cells) | inhibition of epithelin 1-induced colony formation in soft agar (NRK-SA6 cells [8]; epithelin 2 at ~85 nM, epithelin 1 20 ng/ml) | anchorage-independent growth (colony formation in soft agar) of NRK cells (NRK-SA6 cells [8]; in the presence of TGFβ 1 ng/ml, FIG. 17) |
| --- | --- | --- | --- | --- | --- | --- | --- | --- | --- | --- | --- | --- | --- | --- | --- | --- | --- | --- | --- |
| – | EGF: epidermal growth factor, comparison growth factor (NSDSECPLSHDGYCLHDGVCMYIEALDKYACNCVVGYIGERCQYRDLKWWELR; UniProt P01133 971-1023, looked up) [reference compound] | did not proliferate in the absence of EGF or epithelin 1 | induces anchorage-independent growth | – | – | – | – | – | – | – | – | – | – | – | – | – | – | – | – |
| – | TGFα: transforming growth factor-α | – | induces anchorage-independent growth | – | – | – | – | – | – | – | – | – | – | – | – | – | – | – | – |
| ~750 nM | epithelin 2: single chain polypeptide of 57 amino acid residues, 12 cysteines, purified from rat kidney; antagonizes epithelin 1 growth stimulation (VVCPDAKTQCPDDSTCCELPTGKYGCCPMPNAICCSDHLHCCPQDTVCDLIQSKCIS) | did not exhibit any significant effect; also recorded: no effect | – | ~7 nM | ~21 nM | did not show any significant effect | Neither protein exhibited any significant effect | 450 ng/well | 3,810 Units/mg | 3.8×10^3 units/mg protein | not | significantly inhibited | stable; also recorded: resistant | sensitive | Neither epithelin 1 nor epithelin 2 significantly affected the binding | did not show any effect | significantly inhibited | about 50% | did not; also recorded: no effect |
